Key:
Format in all cases: biochemical
[1] = target: T1, recombinant soluble tissue factor and recombinant human factor VIIa (TF-VIIa) (Homo sapiens, UniProt P08709); test: TF-VIIa Assay; details: chromogenic substrate, 60 min, room temperature, pH 8.0
T1 construct: purchased American Diagnostica, Greenwich Conn; host or cells: soluble TF made in house in E. coli
Experimental: (§1) In this assay 100 nM recombinant soluble tissue factor and 2 nM recombinant human factor VIIa are added to a 96-well assay plate containing 0.4 mM of the substrate, N-Methylsulfonyl-D-phe-gly-arg-p-nitroaniline and either inhibitor or buffer (5 mM CaCl2,50 mM Tris-HCl, pH 8.0, 100 mM NaCl, 0.1% BSA). The reaction, in a final volume of 100 ul is measured immediately at 405 nm to determine background absorbance. The plate is incubated at room temperature for 60 min, at which time the rate of hydrolysis of the substrate is measured by monitoring the reaction at 405 nm for the release of p-nitroaniline. Percent inhibition of TF-VIIa activity is calculated from OD405 nm value from the experimental and control sample.
(§2) Recombinant soluble TF, consisting of amino acids 1-219 of the mature protein sequence was expressed in E. coli and purified using a Mono Q Sepharose FPLC. Recombinant human VIIa was purchased from American Diagnostica, Greenwich Conn. and chromogenic substrate N-Methylsulfonyl-D-phe-gly-arg-p-nitroaniline was prepared by American Peptide Company, Inc., Sunnyvale, Calif. Factor Xa was obtained from Enzyme Research Laboratories, South Bend Ind., thrombin from Calbiochem, La Jolla, Calif., and trypsin and L-BAPNA from Sigma, St Louis Mo. The chromogenic substrates S-2765 and S-2238 were purchased from Chromogenix, Sweden.

[2] = target: T2, human factor Xa (Homo sapiens, UniProt P00742); test: Xa Assay; details: S-2765 substrate, 60 min, room temperature, pH 8.0
T2 construct: leads from XII to XIIa to XIa to IXa and to the conversion of X to Xa; purchased Enzyme Research Laboratories, South Bend Ind
T2 sequence (P00742 235-488 limits assumed): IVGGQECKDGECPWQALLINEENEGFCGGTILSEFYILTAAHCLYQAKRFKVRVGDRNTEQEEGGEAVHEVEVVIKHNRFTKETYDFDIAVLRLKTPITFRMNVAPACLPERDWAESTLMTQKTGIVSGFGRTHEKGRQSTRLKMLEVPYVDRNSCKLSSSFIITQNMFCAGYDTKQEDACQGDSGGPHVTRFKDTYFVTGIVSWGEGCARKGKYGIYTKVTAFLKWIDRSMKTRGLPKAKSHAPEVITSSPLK
T2 sequence (P00742 41-179 partner limits assumed): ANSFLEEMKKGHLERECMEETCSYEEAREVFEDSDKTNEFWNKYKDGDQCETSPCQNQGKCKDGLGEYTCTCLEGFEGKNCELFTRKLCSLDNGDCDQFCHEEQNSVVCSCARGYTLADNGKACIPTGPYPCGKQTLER
Experimental: as §1, with “0.3” for “In this assay 100”, “nM” for “nM recombinant soluble tissue factor and 2 nM recombinant”, “Xa and 0.15 mM N-α-Benzyloxycarbonyl-D-arginyl-L-glycyl-L-arginine-p-nitroaniline-dihydrochloride (S-2765)” for “VIIa”, “containing” for “containing 0.4 mM of the substrate, N-Methylsulfonyl-D-phe-gly-arg-p-nitroaniline and”, “(50” for “(5 mM CaCl2,50”, “Xa” for “TF-VIIa”
as §2

[3] = target: human thrombin (Homo sapiens, UniProt P00734); test: Thrombin Assay; details: chromogenic substrate, 60 min, room temperature, pH 8.0; read-out: Thrombin II IC50
Experimental: Percent inhibition of thrombin activity is calculated from OD405 nm value from the experimental and control sample.
Recombinant human VIIa was purchased from American Diagnostica, Greenwich Conn. and chromogenic substrate N-Methylsulfonyl-D-phe-gly-arg-p-nitroaniline was prepared by American Peptide Company, Inc., Sunnyvale, Calif. Factor Xa was obtained from Enzyme Research Laboratories, South Bend Ind., thrombin from Calbiochem, La Jolla, Calif., and trypsin and L-BAPNA from Sigma, St Louis Mo.

[4] = target: T3, trypsin, type IX from porcine pancreas (Sus scrofa, UniProt P00761); test: Trypsin Assay; details: L-BAPNA substrate, 60 min, room temperature, pH 8.0; read-out: Trpysin II ICSO
T3 construct: purchased Sigma, St Louis Mo. type IX; host or cells: porcine pancreas
T3 sequence (P00761 9-231): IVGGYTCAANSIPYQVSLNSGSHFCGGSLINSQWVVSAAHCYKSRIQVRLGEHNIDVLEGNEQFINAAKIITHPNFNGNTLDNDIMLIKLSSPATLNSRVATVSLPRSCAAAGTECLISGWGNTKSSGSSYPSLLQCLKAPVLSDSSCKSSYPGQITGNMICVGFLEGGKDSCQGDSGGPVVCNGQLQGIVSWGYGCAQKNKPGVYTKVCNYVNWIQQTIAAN
Experimental: 5 ug/ml trypsin, type IX from porcine pancreas and 0.375 mM N-α-Benzoyl-L-arginine-p-nitroanilide (L-BAPNA) are added to a 96-well assay plate containing either inhibitor or buffer (50 mM Tris-HCl, pH 8.0, 100 mM NaCl, 0.1% BSA). The reactions, in a final volume of 100 ul are measured immediately at 405 nm to determine background absorbance. The plate is incubated at room temperature for 60 min, at which time the rate of hydrolysis of the substrate is measured by monitoring the reaction at 405 nm for the release of p-nitroaniline. Percent inhibition of trypsin activity is calculated from OD405 nm value from the experimental and control sample.
as §2

T1 sequence (P08709 213-466 limits assumed): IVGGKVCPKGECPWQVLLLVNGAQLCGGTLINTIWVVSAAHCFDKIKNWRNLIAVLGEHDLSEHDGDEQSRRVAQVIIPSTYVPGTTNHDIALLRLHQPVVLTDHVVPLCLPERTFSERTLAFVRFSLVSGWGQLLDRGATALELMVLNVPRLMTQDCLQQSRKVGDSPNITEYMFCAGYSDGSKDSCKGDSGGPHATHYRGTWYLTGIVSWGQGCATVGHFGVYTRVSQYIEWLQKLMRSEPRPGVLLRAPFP
T1 sequence (P08709 61-212 partner limits assumed): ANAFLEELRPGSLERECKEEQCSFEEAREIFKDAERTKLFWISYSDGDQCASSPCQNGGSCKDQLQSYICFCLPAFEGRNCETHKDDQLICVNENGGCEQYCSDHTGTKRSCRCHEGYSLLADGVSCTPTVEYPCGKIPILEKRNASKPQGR
T1 sequence (P13726 33-251 partner limits assumed): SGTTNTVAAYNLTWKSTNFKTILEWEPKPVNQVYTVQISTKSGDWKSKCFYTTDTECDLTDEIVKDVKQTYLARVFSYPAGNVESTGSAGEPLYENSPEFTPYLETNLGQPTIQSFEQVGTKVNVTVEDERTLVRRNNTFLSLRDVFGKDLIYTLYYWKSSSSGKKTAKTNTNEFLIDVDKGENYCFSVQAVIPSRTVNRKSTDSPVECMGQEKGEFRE

Compound	IC50 [1] [µM]	IC50 [2] [µM]	IC50 [3] [µM]	IC50 [4] [µM]
N=C(N)NCCC[C@H](NC(=O)Cn1c(=O)c(NS(=O)(=O)Cc2ccccc2)cc2ccccc21)C(=O)c1nccs1 [Example 1]	4.6	0.07	0.7	0.21
N=C(N)c1ccc(CNC(=O)Cn2c(=O)c(NCCc3ccccc3)cc3ccccc32)cc1 [Example 3]	26.1	> 30	11	0.86
N=C(N)c1ccc(CNC(=O)Cn2c(=O)c(NS(=O)(=O)c3ccccc3)cc3ccccc32)cc1 [Example 4]	> 30	23.1	22.7	0.48
CN(C)CCCCCCNC(=O)Cn1c(=O)c(NS(=O)(=O)Cc2ccccc2)cc2ccccc21 [Example 9]	> 30	> 30	> 30	> 30
O=C(Cn1c(=O)c(NS(=O)(=O)Cc2ccccc2)cc2ccccc21)NCCCn1ccnc1 [Example 12]	> 30	> 30	> 30	> 30
CN1CCC(CCCNC(=O)Cn2c(=O)c(NS(=O)(=O)Cc3ccccc3)cc3ccccc32)CC1 [Example 15]	> 30	> 30	> 30	> 30
N=C(N)NCCC[C@H](NC(=O)Cn1c(CCc2ccccc2)ccc(NS(=O)(=O)Cc2ccccc2)c1=O)C(=O)c1nccs1 [Example 17, N-[2(S)-2-[1-Oxo-1-(2-thiazolyl)]-5-[[(amino)iminomethyl]amino]pentyl]-2-[6-(2-phenylethyl)-2-oxo-3-[[(phenylmethyl)sulfonyl]amino]-1(2H)-pyrid-1-yl]acetamide]	1.1	0.1	0.2	0.3
Cc1ccc(NS(=O)(=O)Cc2ccccc2)c(=O)n1CC(=O)N[C@@H](CCCNC(=N)N)C(=O)c1nccs1 [Example 18, N-[2(S)-2-[1-Oxo-1-(2-thiazolyl)]-5-[[(amino)iminomethyl]amino]pentyl]-2-[6-methyl-2-oxo-3-[[(phenylmethyl)sulfonyl]amino]-1(2H)-pyrid-1-yl]acetamide]	0.8	< 4	< 0.04	0.2
N=C(N)c1ccc(CNC(=O)Cn2c(CCc3ccccc3)ccc(NS(=O)(=O)Cc3ccccc3)c2=O)cc1 [Example 19, N-[[4-[(amino)iminomethyl]phenyl]methyl)-2-[6-(2-phenylethyl)-2-oxo-3-[[(phenylmethyl)sulfonyl]amino]-1(2H)-pyrid-1-yl]acetamide]	18	4.1	0.4	< 0.1
Cc1ccc(NS(=O)(=O)Cc2ccccc2)c(=O)n1CC(=O)NCc1ccc(C(=N)N)cc1 [Example 20, N-[(4-[[amino)iminomethyl]phenyl]methyl]-2-[6-methyl-2-oxo-3-[[(phenylmethyl)sulfonyl]amino]-1(2H)-pyrid-1-yl]acetamide]	23	5.7	0.3	0.5
N=C(N)N1CCC(CNC(=O)Cn2c(CCc3ccccc3)ccc(NS(=O)(=O)Cc3ccccc3)c2=O)CC1 [Example 21]	> 30	17	0.5	0.6
Cc1ccc(NS(=O)(=O)Cc2ccccc2)c(=O)n1CC(=O)NCC1CCN(C(=N)N)CC1 [Example 22]	> 30	–	–	11.1

Continued, values first:

IC50 [1] [µM]	IC50 [2] [µM]	IC50 [3] [µM]	IC50 [4] [µM]	Compound
46	7.7	5.5	0.5	N=C(N)c1ccc(CNC(=O)Cn2c(=O)c(NS(=O)(=O)Cc3ccccc3)cc3ccccc32)cc1 [Example 2, N-[[4-[(amino)iminomethyl]phenyl]methyll]-2-[3-benzylsulfonyl-amino-2-oxo-2H-quinolin-1-yl]acetamide]
> 30	> 30	> 30	> 30	Nc1ccc(CCNC(=O)Cn2c(=O)c(NS(=O)(=O)Cc3ccccc3)cc3ccccc32)cc1 [Example 6]
> 30	> 30	> 30	> 30	NCCCCNC(=O)Cn1c(=O)c(NS(=O)(=O)Cc2ccccc2)cc2ccccc21 [Example 7]
> 30	> 30	> 30	> 30	NCCCCCNC(=O)Cn1c(=O)c(NS(=O)(=O)Cc2ccccc2)cc2ccccc21 [Example 8]
> 30	> 30	> 30	> 30	NCc1ccc(CNC(=O)Cn2c(=O)c(NS(=O)(=O)Cc3ccccc3)cc3ccccc32)cc1 [Example 10]
> 30	> 30	> 30	> 30	NCc1cccc(CNC(=O)Cn2c(=O)c(NS(=O)(=O)Cc3ccccc3)cc3ccccc32)c1 [Example 11]
> 30	> 30	> 30	> 30	O=C(Cn1c(=O)c(NS(=O)(=O)Cc2ccccc2)cc2ccccc21)NCCc1cnc[nH]1 [Example 13]
> 30	> 30	> 30	> 30	O=C(Cn1c(=O)c(NS(=O)(=O)Cc2ccccc2)cc2ccccc21)NCCc1cccnc1 [Example 14]
> 30	> 30	> 30	> 30	Nc1ccc(CNC(=O)Cn2c(=O)c(NS(=O)(=O)Cc3ccccc3)cc3ccccc32)cc1 [Example 16]

— patent publication US6870056B1, “Substitituted polycyclic aryl and heteroaryl pyridones useful for selective inhibition of the coagulation cascade” (Pharmacia Corporation, priority 1999, dated 2005)
